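Method: 48-hour compound exposure of cells in 96-well plates, five concentrations, linear interpolation of endpoints. GI50 is the concentration that inhibits growth by half.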 Calls of active or inactive are those of the source. Rule as the data show it: active = GI50 up to about 1.1 µM and inactive = higher.
Legend:
Experiment in all cases: NCI anticancer screen, dose series, 48 h
[1] = system: A498
[2] = system: ACHN
[3] = system: CAKI-1
[4] = system: DU-145
[5] = system: HCC 2998
[6] = system: M14
[7] = system: MDA-MB-435
[8] = system: MDA-N
[9] = system: PC-3
[10] = system: SN12C
[11] = system: TK-10
[12] = system: DMS-114
[13] = system: DMS-273
[14] = system: HOP-18
[15] = system: Malme-3M
[16] = system: NCI-H522
[17] = system: SNB-78
[18] = system: XF498
[19] = system: KM-20L2
[20] = system: M19-MEL

Measured: GI50

CCCCN(CCCC)c1ccc(/N=N/c2ccc(S(=O)(=O)O)cc2)cc1
inactive: [1] 31.4 µM | [2] 46.7 µM | [3] 20.2 µM | [4] 39.2 µM | [5] 24 µM | [6] > 100 µM | [7] 57.9 µM | [8] 52.2 µM | [9] 25.8 µM | [10] 25.4 µM | [11] 67.8 µM

O=C(NN1C(=O)CS(=O)(=O)C1c1ccc(C(F)(F)F)cc1)c1ccncc1 (stereo not given)
inactive: [1] > 100 µM | [2] > 100 µM | [3] > 100 µM | [12] > 100 µM | [13] > 100 µM | [5] > 100 µM | [14] > 100 µM | [6] > 100 µM | [15] > 100 µM | [16] > 100 µM | [10] > 100 µM | [17] > 100 µM | [11] > 100 µM | [18] > 100 µM

CC1(C)N/C(=C\C=O)C(C)(C)N1O
inactive: [2] > 100 µM | [3] > 100 µM | [4] > 100 µM | [5] > 100 µM | [6] > 100 µM | [7] > 100 µM | [8] > 100 µM | [15] > 100 µM | [9] > 100 µM | [10] > 100 µM | [11] > 100 µM

O=C(OC(=O)n1ccc2ccccc21)n1ccc2ccccc21
inactive: [1] > 100 µM | [3] > 96.4 µM | [12] > 100 µM | [13] > 100 µM | [5] > 100 µM | [14] > 100 µM | [19] > 100 µM | [20] > 100 µM | [10] > 100 µM | [17] > 100 µM | [18] > 100 µM

COc1cc2c(cc1OC)C(Cc1c3ccccc3cc3ccccc13)N(C)CC2 (stereo not given)
inactive: [1] 17.4 µM | [3] 25.1 µM | [13] 26 µM | [14] 16.5 µM | [19] 15.2 µM | [20] 21.3 µM | [16] 24.4 µM | [10] 42 µM | [17] 23.9 µM | [18] 18.4 µM

COc1ccc(-c2c(C#N)c(NC(=S)NC(=O)c3ccccc3)nc3c2CCCC3)cc1OC
inactive: [2] 72.3 µM | [3] 49.5 µM | [4] > 100 µM | [6] 75.7 µM | [7] 66.1 µM | [8] 65.3 µM | [15] 29.8 µM | [9] 46.2 µM | [10] 49 µM | [11] 45.4 µM

CC1(C)CCc2ccc(OCCC(=O)O)cc2O1
inactive: [2] > 100 µM | [3] > 100 µM | [12] > 100 µM | [13] > 100 µM | [6] > 100 µM | [20] > 100 µM | [15] > 100 µM | [16] > 100 µM | [10] > 100 µM | [17] > 100 µM

CCOC(=O)/C(O)=C1\C(=O)N(C)C(=O)C1c1ccc(OC)c(OC)c1 (stereo not given)
inactive: [1] > 100 µM | [3] > 100 µM | [12] > 100 µM | [13] > 100 µM | [5] > 100 µM | [14] > 100 µM | [19] > 100 µM | [20] > 100 µM | [15] > 100 µM | [16] > 100 µM | [10] > 100 µM | [17] > 100 µM | [18] > 100 µM

Reference: ChEMBL document CHEMBL1201862, “PubChem BioAssay data set” (2004)
